The text below walks through data of ChEMBL document CHEMBL5154881, “Discovery of First-in-Class TAK1-MKK3 Protein-Protein Interaction (PPI) Inhibitor (R)-STU104 for the Treatment of Ulcerative Colitis through Modulating TNF-α Production” (J Med Chem, 2022).

Activity calls are given as the source filed them. The rule behind the calls is not given here.

Series [1] concerns Mus musculus. The experiment in a line: Anti-ulcerative colitis activity against DSS-induced ulcerative colitis C57BL/6 mouse model assessed as reduction in DAI recovery score ratio at 3 mg/kg, IG via gavage administered for 7 days and measured everyday relative to control. It is filed as functional. The note with it: time 7 day. On the set-up: scale not given: the % may be the effect or the level left.

The subject of series [2] is Mus musculus. The experiment in a line: Antiinflammatory activity against IL-10-/- C57BL/6 mouse model of acute ulcerative colitis assessed as decrease in serum IL-23 levels administered intragastrically via gavage measured after 8 weeks by ELISA. It is filed as functional, organism-based. The note with it: dose 3-10 mg/kg, route ig, DDE = dose-dependent effect. On the technique in general: In an ELISA, binding on a coated surface is turned into a signal by an enzyme label.

In series [3] the target is T1, Dual specificity mitogen-activated protein kinase kinase 3 (Homo sapiens) (UniProt P46734).
T1 sequence (whole entry): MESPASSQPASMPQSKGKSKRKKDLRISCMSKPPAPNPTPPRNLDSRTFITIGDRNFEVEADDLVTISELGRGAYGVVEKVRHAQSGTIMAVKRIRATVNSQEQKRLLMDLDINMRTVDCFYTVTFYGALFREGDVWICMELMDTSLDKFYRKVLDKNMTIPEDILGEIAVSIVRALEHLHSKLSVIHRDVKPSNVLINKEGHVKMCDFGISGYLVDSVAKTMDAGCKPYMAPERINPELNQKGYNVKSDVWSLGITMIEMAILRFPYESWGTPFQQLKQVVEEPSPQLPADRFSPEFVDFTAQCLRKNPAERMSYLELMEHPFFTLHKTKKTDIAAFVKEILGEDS
Put plainly: Binding affinity to CM5 chip immobilized human MKK3 (20 to 347 residues) expressed in Escherichia coli BL21 (DE3) assessed as association constant, Ka by surface plasmon resonance analysis.

Series [4] addresses T2, Dual specificity mitogen-activated protein kinase kinase 3 (Mus musculus) (UniProt O09110).
T2 sequence (whole entry): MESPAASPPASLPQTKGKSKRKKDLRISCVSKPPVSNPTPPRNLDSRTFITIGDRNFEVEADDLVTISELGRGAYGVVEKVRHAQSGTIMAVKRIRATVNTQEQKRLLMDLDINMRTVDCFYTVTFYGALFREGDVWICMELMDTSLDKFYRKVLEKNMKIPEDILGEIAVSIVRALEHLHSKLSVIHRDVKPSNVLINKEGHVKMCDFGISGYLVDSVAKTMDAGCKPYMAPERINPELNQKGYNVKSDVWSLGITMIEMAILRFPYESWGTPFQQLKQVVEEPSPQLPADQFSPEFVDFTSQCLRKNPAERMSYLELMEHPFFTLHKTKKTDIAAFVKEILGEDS
Put plainly: Binding affinity to MKK3 in mouse RAW264.7 cells assessed as increase in thermal stability by measuring change in melting temperature at 6.25 uM incubated for 24 hrs by CETSA. It is filed as cell-based.

Series [5] concerns Mus musculus. Put plainly: Anti-ulcerative colitis activity against DSS-induced ulcerative colitis C57BL/6 mouse model assessed as body weight recovery rate at 3 mg/kg, IG via gavage administered for 7 days and measured everyday relative to control. It is filed as functional. The note with it: time 7 day.
The test system of series [6] is Mus musculus. The experiment in a line: Anti-ulcerative colitis activity in IL-10-/- C57BL/6 mouse ulcerative colitis model assessed as animal survival at 3 to 10 mg/kg, IG via gavage for 8 weeks. It is filed as functional, organism-based. The settings on record: dose 3-10 mg/kg.
For series [7], the system named is Mus musculus. The experiment in a line: Anti-ulcerative colitis activity against DSS-induced ulcerative colitis C57BL/6 mouse model assessed as reduction in DAI recovery score ratio at 1 mg/kg, IG via gavage administered for 7 days and measured everyday relative to control. Also noted: scale not given: the % may be the effect or the level left. The note with it: time 7 day. It is filed as functional.

Series [8] concerns Mus musculus. The experiment in a line: Antiinflammatory activity against IL-10-/- C57BL/6 mouse model of ulcerative colitis assessed as inhibition ratio of IL-6 mRNA expression in colon tissue at 3 mg/kg, IG via gavage and measured after 8 weeks by RT-qPCR analysis relative to control. It is filed as functional. Also noted: scale not given: the % may be the effect or the level left.

In series [9] the test system is Mus musculus. The experiment in a line: Antiinflammatory activity against IL-10-/- C57BL/6 mouse model of acute ulcerative colitis assessed as decrease in serum IL-1beta levels administered intragastrically via gavage measured after 8 weeks by ELISA. It is filed as functional, organism-based. The note with it: dose 3-10 mg/kg, route ig, DDE = dose-dependent effect.

In series [10] the test system is Mus musculus. Put plainly: Anti-ulcerative colitis activity in IL-10-/- C57BL/6 mouse model of ulcerative colitis assessed as histopathological score recovery ratio at 1 mg/kg, IG via gavage for 8 weeks relative to control. It is filed as functional.
The nature of series [11]: Toxicity in C57 mouse assessed as maximum tolerated dose administered orally daily for 14 days. The settings on record: in vivo, route po, time 14 day.
In series [12] the test system is Mus musculus. Put plainly: Antiinflammatory activity against DSS-induced C57BL/6 mouse model of acute ulcerative colitis assessed as inhibition of TNF-alpha mRNA expression in colon tissue administered intragastrically via gavage measured after 7 days by RT-qPCR analysis. The settings on record: route ig, time 7.0 day, DDE = dose-dependent effect. It is filed as functional, organism-based. (In qPCR the cycle at which signal appears reflects the starting amount.)

Series [13] deals with Mus musculus. The experiment in a line: Antiinflammatory activity against IL-10-/- C57BL/6 mouse model of ulcerative colitis assessed as inhibition ratio of IL-1beta mRNA expression in colon tissue at 10 mg/kg, IG via gavage and measured after 8 weeks by RT-qPCR analysis relative to control. It is filed as functional. On the set-up: scale not given: the % may be the effect or the level left.

The target of series [14] is T3, Dual specificity mitogen-activated protein kinase kinase 3 (Homo sapiens, UniProt P46734).
T3 sequence (P46734 whole entry): T1 sequence (whole entry)
The experiment in a line: Binding affinity to CM5 chip immobilized human MKK3 (20 to 347 residues) expressed in Escherichia coli BL21 (DE3) assessed as dissociation constant, Kd by surface plasmon resonance analysis. Background: Surface plasmon resonance follows binding to a sensor surface in real time, without labels.

A short description of series [15]: AUC (0 to t) in 12 hr starved C57 mouse at 5 mg/kg, iv measured for 0.083 to 24 hrs post-dose by LC-MS-MS analysis. It is filed as ADME, organism-based. On the set-up: time lower 0.083 hrs, dose 5 mg/kg, time upper 24 hrs, route iv. The settings on record: in vivo.
Series [16] relates to P-gp (human). Put plainly: Efflux ratio of apparent permeability in dog MDCK-MDR1 cells transfected with human P-gp. It is filed as ADME, cell-based, Canis lupus familiaris.
For series [17], the system named is Mus musculus. The experiment in a line: Antiinflammatory activity against IL-10-/- C57BL/6 mouse model of ulcerative colitis assessed as inhibition ratio of IL-23 protein expression at 1 mg/kg, IG via gavage and measured after 8 weeks by ELISA relative to control. It is filed as functional. Also noted: scale not given: the % may be the effect or the level left.

Series [18] deals with Mus musculus. Put plainly: Antiinflammatory activity against IL-10-/- C57BL/6 mouse model of ulcerative colitis assessed as inhibition ratio of IL-1beta mRNA expression in colon tissue at 3 mg/kg, IG via gavage and measured after 8 weeks by RT-qPCR analysis relative to control. It is filed as functional. Also noted: scale not given: the % may be the effect or the level left.

For series [19], the system named is RAW264.7. The experiment in a line: Inhibition of LPS-induced TNFalpha production in mouse RAW264.7 cells at 50 uM preincubated for 2 hrs followed by LPS treatment for 24 hrs by RT-qPCR analysis relative to control. It is filed as functional. The note with it: time 26 hrs.
The subject of series [20] is Mus musculus. Put plainly: Anti-ulcerative colitis activity in IL-10-/- C57BL/6 mouse model of ulcerative colitis assessed as colon length recovery ratio at 10 mg/kg, IG via gavage for 8 weeks relative to control. It is filed as functional.
Series [21] concerns Mus musculus. Put plainly: Antiinflammatory activity against IL-10-/- C57BL/6 mouse model of ulcerative colitis assessed as inhibition ratio of IL-6 protein expression at 1 mg/kg, IG via gavage and measured after 8 weeks by ELISA relative to control. On the set-up: scale not given: the % may be the effect or the level left. It is filed as functional.
Series [22] is described as follows: Toxicity in C57 mouse assessed as kidney damage at 50 to 500 mg/kg, po administered daily for 14 days. It is filed as organism-based. The note with it: in vivo, 336 h, dose 50-500 mg/kg, time 14 day.
For series [23], the system named is Mus musculus. Put plainly: Antiinflammatory activity against DSS-induced C57BL/6 mouse model of acute ulcerative colitis assessed as inhibition ratio of IL-1beta mRNA expression in colon tissue at 1 mg/kg, IG via gavage measured after 7 days by RT-qPCR analysis relative to control. It is filed as functional. On the set-up: scale not given: the % may be the effect or the level left. The settings on record: time 7 day.

As usually defined, the ΔTm is the shift of the melting midpoint relative to a reference. As usually defined, the MTD is the largest dose that counted as tolerated. The term AUC(0-t) denotes the area under the concentration-time curve up to a stated or last time point. By efflux ratio is commonly meant a quotient of directional permeabilities that is used to spot active efflux. A word on the inhibition: it is the relative decrease from the control value, in per cent. As to `COc1ccc([C@H]2CC(=O)c3cc(OC)cc(OC)c32)cc1`, the Activity was 40% in series [1]; “Dde” in series [2]; 22.7% in series [5]; 20% in series [7]; 37.1% in series [8]; “Dde” in series [9]. Also, the Activity in series [10] was 33%; in series [12] it was “Dde”; in series [13] it was 43.8%; in series [17], 39.6%; in series [18], 36.1%; in series [20] it was 41.2%. The Activity in series [21] is 31.4%; in series [22], “Non-Toxic”; in series [23], 70.1%. In addition, the Ka in series [3] is 5.08 10^4/Ms. The ΔTm in series [4] came out at 2 °C. Also, the outcome in [6] was Active. Besides, in series [11], the MTD at 336 h came out at 500 mg/kg. The Kd in [14] is recorded as 3.61 10^-3/s. The compound further displayed an area under the curve AUC(0-t) in [15] of 7250 ng·h/mL. Also, the efflux ratio in [16] was 0.33. Further, at 50 µM the inhibition in series [19] was 62.3%.
